From publication PMC11200944, “Hybrid Caffeic Acid-Based DHFR Inhibitors as Novel Antimicrobial and Anticancer Agents” (Antibiotics, 2024)
In brackets after ≈: the same amount, converted by molar mass. Where two headings read alike, the source gives them in different places.

Legend:
[1] = molecular target: T1, DHFR (Homo sapiens, UniProt P00374); experiment: In vitro DHFR inhibition assay (DHFR assay kit CS0340, spectrophotometric, 340 nm); assay type: biochemical
T1 construct: purchased Sigma-Aldrich CS0340
T1 sequence (P00374 1-187): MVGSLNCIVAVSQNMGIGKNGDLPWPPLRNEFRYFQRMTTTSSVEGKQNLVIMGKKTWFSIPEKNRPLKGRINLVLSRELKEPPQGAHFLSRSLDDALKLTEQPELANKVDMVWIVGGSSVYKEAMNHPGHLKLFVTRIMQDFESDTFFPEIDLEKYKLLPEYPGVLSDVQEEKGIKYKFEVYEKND
Protocol: This assessment was carried out using the DHFR assay kit (catalog number CS0340, Sigma-Aldrich, Burlington, MA, USA) by using a spectrophotometric method. The enzymatic […] of dihydrofolic acid to tetrahydrofolic acid was monitored at 340 nm for 180 s, following the procedure recommended by the manufacturer of the assay kit. […] To evaluate the ability of the synthesized derivatives to block DHFR activity, a spectrophotometric assay technique was utilized at 340 nm for 180 seconds to detect the enzyme-catalyzed conversion of dihydrofolic acid to tetrahydrofolic acid. The DHFR assay kit (Sigma-Aldrich, catalog number CS0340) was used in this assay. The kit was tested using recombinant DHFR, NIH 3T3, A431, and CHO cell lines, as well as rat kidney, brain, liver, and muscle tissue extracts. Dihydrofolic acid, NADPH, standard drug solution, assay buffer, and DHFR stock solutions were prepared according to the instructions given in the technical bulletin that came along with the test kit. Except for the assay buffer, all stock solutions were stored on ice.
Each well of a 96-well clear microplate was filled with a calculated amount of assay buffer (190 μL), followed by 6 μL of diluted DHFR, which was thoroughly mixed. […] The microplate was then covered with parafilm, and the contents were mixed by inversion. Following the addition of 1 μL of substrate dihydrofolic acid, the absorbance was measured at 340 nm over a period of 180 s using an ELISA reader (Gen BioTek Microplate Reader, Winooski, VT, USA) in kinetic mode at room temperature. Plotting the relationship between absorbance and time generates the slope for each test inhibitor sample. The relative inhibition percentages were calculated using Equation (1). % relative inhibition = (slope of [EC] − slope of [S]/slope of [EC]) × 100(1) where S is the sample of interest, EC (enzyme control).

[2] = test system: S. aureus (ATCC FDA209-P); experiment: Antibacterial MIC, broth microdilution; assay type: cell-based, Staphylococcus aureus; settings: read-out: MIC (µM) S. aureus
Protocol: (§1) The serial dilution technique was utilized to evaluate the antimicrobial activity of synthesized derivatives against Gram-negative, Gram-positive, and fungal strains. […] To dissolve the reference and sample derivatives, DMSO was employed as a solvent. The synthesized compounds were evaluated for their antibacterial effectiveness against E. coli, P. aeruginosa, and S. aureus, and their antifungal potential was tested against Candida albicans and Aspergillus niger.
(§2) The antibacterial and antifungal activity of potential synthesized compounds was evaluated using the broth microdilution method to determine their minimum inhibitory concentration (MIC). […] Individual MIC (µM) values were determined using serial dilution technique with Mueller–Hinton Broth (MHB) media for bacterial growth and Roswell Park Memorial Institute (RPMI) media for fungal growth. […] The turbidity of the spore suspension was corrected to 0.5 McFarland by adding distilled water. Stock solutions of synthesized compounds were prepared in DMSO solvent and serially diluted to determine the MIC value. Each spore (0.1 mL) was put into each well holding the finally serially diluted synthesized compound concentration, standards, and controls. […] Agar plate spotting was carried out for each spore and incubated for 24 h at 37 ± 1 °C (for bacteria spores), 48 h at 37 ± 1 °C (for C. albicans), and 7 days at 25 ± 1 °C (for A. niger) to determine CFU. To assess reproducibility, duplicate tests were performed on three separate days.

[3] = test system: P. aeruginosa (ATCC 27853); experiment: Antibacterial MIC, broth microdilution; assay type: cell-based, Pseudomonas aeruginosa; settings: read-out: MIC (µM) P. aeruginosa
Protocol: as §1, §2

[4] = test system: E. coli (ATCC 25922); experiment: Antibacterial MIC, broth microdilution; assay type: cell-based, Escherichia coli; settings: read-out: MIC (µM) E. coli
Protocol: as §1, §2

[5] = test system: C. albicans (ATCC SC5314); experiment: Antifungal MIC, broth microdilution; assay type: cell-based, Candida albicans; settings: for MIC: read-out: MIC (µM) C. albicans
Protocol: as §1, §2

[6] = test system: A. niger (MTCC 1688); experiment: Antifungal MIC, broth microdilution; assay type: cell-based, Aspergillus niger; settings: for MIC: read-out: MIC (µM) A. niger
Protocol: as §1, §2

[7] = test system: MCF-7 breast cancer cell line; experiment: Anticancer activity (MTT assay); assay type: cell-based; settings: Homo sapiens
Protocol: The anticancer potential of synthesized derivatives was assessed by targeting the MCF-7 breast cancer cell line.
The potential newly synthesized derivatives were evaluated for their cytotoxic activity on the MCF-7 cell line (sourced from NCCS in Pune, India) using the MTT (3-[4,5-dimethylthiazol-2-yl]-2,5-diphenyl tetrazolium bromide) assay. To perform the assay, 10,000 cells were placed in each well of 96-well plates and left to incubate for 24 h in Dulbecco’s Modified Eagle Medium (DMEM). The medium was supplemented with 1% antibiotic solution and 10% FBS (fetal bovine serum), and the incubation occurred at a temperature of 37 °C in an environment containing 5% CO2. […] The cultures were then subjected to additional 2 h incubation. Upon concluding the experiment, the culture supernatant was extracted, and the cellular matrix was dissolved in 100 µL of DMSO. The absorbance of the resulting solution underwent evaluation using an ELISA plate reader (iMark, Biorad, Hercules, CA, USA) at 540 nm. Triplicate measurements were performed to enhance the reliability and reproducibility of the results obtained.

[8] = read-out: DHFR Inhibition IC50 (µM) ± SD, n = 3, 180 s
[9] = MCF7, read-out: Anticancer IC50 (µM), n = 3, MCF-7, MTT, 24 h
[10] = Staphylococcus aureus, FDA209, MHB, 37 °C, 24 h
[11] = Pseudomonas aeruginosa, ATCC27853, MHB, 37 °C, 24 h
[12] = Escherichia coli, ATCC25922, MHB, 37 °C, 24 h
[13] = Candida albicans, SC5314, RPMI, 37 °C, 48 h
[14] = Aspergillus niger, MTCC1688, 168 h, RPMI, 25 °C, 7 days
[15] = MCF7, 24 h, read-out: Anticancer IC50 (µM), n = 3

Compound | MIC [2, 10] [µM] | MIC [3, 11] [µM] | MIC [4, 12] [µM] | MIC [5, 13] [µM] | MIC [6, 14] [µM] | further results
4-(2-(4-((2,4-dichlorocyclohexa-1,5-dienyl)methyleneamino)-5-mercapto-4H-1,2,4-triazol-3-yl)vinyl)benzene-1,2-diol [CTh10] |  |  |  |  |  | IC50 [1, 8]: 11.3 ± 0.92 µM; MIC ([2]; MHB, 37 °C, 24 h): 19 µM; MIC ([3]; MHB, 37 °C, 24 h): 39 µM; MIC ([4]; MHB, 37 °C, 24 h): 39 µM; MIC ([5]; RPMI, 37 °C, 48 h): 39 µM; MIC ([6]; RPMI, 25 °C, 7 days): 39 µM
COc1cccc2c1C(=O)c1c(O)c3c(c(O)c1C2=O)C[C@@](O)(C(=O)CO)C[C@@H]3O[C@H]1C[C@H](N)[C@H](O)[C@H](C)O1 [doxorubicin, reference compound] |  |  |  |  |  | IC50 [7, 9]: 3.62 µM
COc1ccc(C=Nn2c(S)nnc2C=Cc2ccc(O)c(O)c2)cc1 [CTh1, 4-(2-(4-(4-methoxybenzylideneamino)-5-mercapto-4H-1,2,4-triazol-3-yl)vinyl)benzene-1,2-diol] | 43 (≈ 15.8 µg/mL) | 86 (≈ 31.7 µg/mL) | 86 (≈ 31.7 µg/mL) | 173 (≈ 63.7 µg/mL) |  | IC50 ([1]; 180 s): 17 ± 1.1 µM; IC50 [7, 9]: 148 ± 11.4 µM; MIC (µM) A. niger ([6]; RPMI, 25 °C, 7 days): -
OC(Cn1cncn1)(Cn1cncn1)c1ccc(F)cc1F [Fluconazole, reference compound] |  |  |  | 0.81 (≈ 0.248 µg/mL) | 260 (≈ 79.7 µg/mL) | 
Oc1ccc(/C=C/c2nnc(S)n2/N=C/c2cc3ccccc3cc2O)cc1O [CTh7, 4-(2-(4-(4-naphthalen-2-ol)-5-mercapto-4H-1,2,4-triazol-3-yl)vinyl)benzene-1,2-diol] | 19 (≈ 7.68 µg/mL) | 19 (≈ 7.68 µg/mL) | 39 (≈ 15.8 µg/mL) |  |  | IC50 ([1]; 180 s): 0.15 ± 0.02 µM; IC50 [7, 9]: 8.53 ± 0.19 µM; MIC (µM) C. albicans ([5]; RPMI, 37 °C, 48 h): -; MIC (µM) A. niger ([6]; RPMI, 25 °C, 7 days): -
Nn1c(S)nnc1C=Cc1ccc(O)c(O)c1 [CTh] |  |  |  |  |  | IC50 [1, 8]: 16.9 ± 1.2 µM; MIC ([2]; MHB, 37 °C, 24 h): 63 µM (≈ 15.8 µg/mL); MIC ([3]; MHB, 37 °C, 24 h): 127 µM (≈ 31.8 µg/mL); MIC ([4]; MHB, 37 °C, 24 h): 255 µM (≈ 63.8 µg/mL); MIC (µM) C. albicans ([5]; RPMI, 37 °C, 48 h): -; MIC ([6]; RPMI, 25 °C, 7 days): 127 µM (≈ 31.8 µg/mL)
O=[N+]([O-])c1ccccc1C=Nn1c(S)nnc1C=Cc1ccc(O)c(O)c1 [CTh6, 4-(2-(4-(2-nitrobenzylideneamino)-5-mercapto-4H-1,2,4-triazol-3-yl)vinyl)benzene-1,2-diol] |  |  |  |  |  | IC50 ([1]; 180 s): 10.5 ± 0.7 µM; IC50 [7, 15]: 89.2 ± 4.17 µM; MIC ([2]; Staphylococcus aureus, FDA209, 24 h): 10 µM (≈ 3.83 µg/mL); MIC ([3]; Pseudomonas aeruginosa, ATCC27853, 24 h): 10 µM (≈ 3.83 µg/mL); MIC ([4]; Escherichia coli, ATCC25922, 24 h): 20 µM (≈ 7.67 µg/mL); MIC ([5]; Candida albicans, SC5314, 48 h): 41 µM (≈ 15.7 µg/mL); MIC ([6]; Aspergillus niger, MTCC1688, 168 h): 83 µM (≈ 31.8 µg/mL)
CN(C)[C@@H]1C(O)=C(C(N)=O)C(=O)[C@@]2(O)C(O)=C3C(=O)c4c(O)cccc4[C@@](C)(O)[C@H]3C[C@@H]12 [Tetracycline, reference compound] | 144 (≈ 64 µg/mL) | 36 (≈ 16 µg/mL) | 36 (≈ 16 µg/mL) |  |  | 
C[C@@H](c1ncncc1F)[C@](O)(Cn1cncn1)c1ccc(F)cc1F [Voriconazole, reference compound] |  |  |  | 0.34 (≈ 0.119 µg/mL) | 5 (≈ 1.75 µg/mL) | 
CC1(C)S[C@@H]2[C@H](NC(=O)[C@H](N)c3ccccc3)C(=O)N2[C@H]1C(=O)O [Ampicillin, reference compound] | 11 (≈ 3.84 µg/mL) | 22 (≈ 7.69 µg/mL) | 11 (≈ 3.84 µg/mL) |  |  | 
Oc1ccc(C=Nn2c(S)nnc2C=Cc2ccc(O)c(O)c2)cc1 [CTh4, 4-(2-(4-(4-hydroxylbenzylideneamino)-5-mercapto-4H-1,2,4-triazol-3-yl)vinyl)benzene-1,2-diol] | 22 (≈ 7.8 µg/mL) | 5 (≈ 1.77 µg/mL) | 5 (≈ 1.77 µg/mL) | 11 (≈ 3.9 µg/mL) |  | IC50 [7, 15]: 122 ± 7.3 µM; MIC (µM) A. niger ([6]; RPMI, 25 °C, 7 days): -
O=[N+]([O-])c1cccc(C=Nn2c(S)nnc2C=Cc2ccc(O)c(O)c2)c1 [CTh3, 4-(2-(4-(3-nitrobenzylideneamino)-5-mercapto-4H-1,2,4-triazol-3-yl)vinyl)benzene-1,2-diol] | 5 (≈ 1.92 µg/mL) | 10 (≈ 3.83 µg/mL) | 10 (≈ 3.83 µg/mL) | 20 (≈ 7.67 µg/mL) | 83 (≈ 31.8 µg/mL) | 
COc1cc(Cc2cnc(N)nc2N)cc(OC)c1OC [Trimethoprim, reference compound] | 63 (≈ 18.3 µg/mL) | 31 (≈ 9 µg/mL) | 31 (≈ 9 µg/mL) | 255 (≈ 74 µg/mL) | 127 (≈ 36.9 µg/mL) | 
